Measured values published in the CheMixHub ionic liquid set.

Experiment: xn = mol fraction of the nth substance listed
Conditions: 101 kPa, frequency 2 MHz

O=S(=O)([O-])C(F)(F)F.[Li+] + O=S(=O)([N-]S(=O)(=O)C(F)(F)F)C(F)(F)F.[Li+] + O
electrical conductivity [S/m]
Conditions | 333 K | 338.1 K | 343 K | 348.1 K | 353 K | 358.1 K
x2 = 0.001799, x1 = 0.0005943 | – | 1.57 | 1.67 | 1.77 | 1.86 | 1.942
x2 = 0.005377, x1 = 0.001799 | – | 3.913 | 4.16 | 4.39 | 4.601 | 4.79
x2 = 0.00893, x1 = 0.003054 | – | 5.77 | 6.124 | 6.46 | 6.76 | 7.029
x2 = 0.01246, x1 = 0.004127 | – | 7.28 | 7.725 | 8.142 | 8.518 | 8.846
x2 = 0.01596, x1 = 0.005377 | – | 8.517 | 9.039 | 9.522 | 9.96 | 10.33
x2 = 0.01944, x1 = 0.006623 | – | 9.534 | 10.12 | 10.7 | 11.13 | 11.5
x2 = 0.05129, x1 = 0.0177 | – | 12.8 | 13.6 | 14.26 | 14.9 | 15.41
x2 = 0.08265, x1 = 0.02921 | – | 11.3 | 12 | 12.6 | 13.18 | 13.7
x2 = 0.112, x1 = 0.04029 | – | 8.943 | 9.518 | 10.05 | 10.5 | 11
x2 = 0.1395, x1 = 0.05129 | – | 6.839 | 7.313 | 7.76 | 8.17 | 8.535
x2 = 0.1654, x1 = 0.06203 | – | 5.18 | 5.57 | 5.943 | 6.29 | 6.609
x2 = 0.1898, x1 = 0.07238 | – | 3.921 | 4.245 | 4.56 | 4.86 | 5.128
x2 = 0.2128, x1 = 0.08265 | – | 2.98 | 3.244 | 3.507 | 3.76 | 4
x2 = 0.2345, x1 = 0.0927 | – | 2.26 | 2.48 | 2.705 | 2.917 | 3.118
x2 = 0.2551, x1 = 0.1024 | 1.539 | 1.72 | 1.903 | 2.08 | 2.26 | 2.429
x2 = 0.2745, x1 = 0.112 | 1.16 | 1.303 | 1.45 | 1.6 | 1.744 | 1.88
